Laboratory results reported in patent publication US20260347310A1, “PHENALKYLAMINES AND METHODS OF MAKING AND USING THE SAME” (GILGAMESH PHARMACEUTICALS, INC., priority 2022, published 2026).
Read-outs that look alike come from different tables or passages of the source.

Tests used:
[1] = Pharmacokinetics in plasma of rats after oral and intravenous dosing; oral bioavailability; assay type: in vivo, Sprague Dawley rats; settings: rat plasma, racemate, 10% captisol
Experimental: The pharmacokinetics of disclosed compounds were determined in the plasma of rats after oral and intravenous dosing, with the results presented in Table 13.
Animals. Male Sprague Dawley rats were used in these studies. Animals were randomly assigned to treatment groups and were fasted overnight before oral dosing.
Drugs. The test compound was dissolved in 10% captisol (1) or 10% DMSO and 90% normal saline (2a) and administered intravenously (iv) at 2 mg/kg (1) or 1 mg/kg (2a) or orally (po) at 10 mg/kg (1) or 1 mg/kg (2a), calculated based on freebase, and at a volume of 10 mL/kg body weight for oral administration and 5 mL/kg for IV administration. The compounds were tested as the racemates.
Sample Collection and Bioanalysis. Blood samples were collected through the external jugular vein (via cannulation) at 0.083, 0.25, 0.5, 1, 2, 4, 8, and 24 h post-dose (total 8 time points/rat, 4 rats per administration route). At each time point, ~0.2 mL of blood was withdrawn and transferred into a pre-labeled 0.5-mL micro centrifuge tube containing 4 μL of 200 mM K2EDTA solution as anticoagulant and mixed gently by inverting the tube to facilitate mixing of anticoagulant with the blood. Blood samples were kept on ice until centrifugation. The collected blood samples were centrifuged at 4,000 rpm for 10 min at 4° C. Plasma samples were separated after centrifugation, transferred into pre-labeled tubes, and stored at −70° C. until bioanalysis. For bioanalysis, a 200-μL aliquot of internal standard prepared in acetonitrile (cetirizine, 50 ng/mL) was added (except for blank, where 200 μL of acetonitrile was added) to a 96-well Solvinert filter plate followed by 5 μL of a study plasma sample or spiked calibration standard. The filter plate was then centrifuged for 5 minutes at a speed of 2,500 rpm at 4° C. with a 96-well sample collection plate. Following centrifugation, collected samples were analyzed using a fit-for-purpose LC-MS/MS method, with authentic samples of the analyte used for calibration and identification.
Data Analysis. Pharmacokinetic parameters were estimated using the non-compartmental analysis tool of Phoenix® WinNonlin software (Ver 8.1). The drug concentrations of samples below the lower limit of quantitation (LLOQ) were designated as zero.

5-HT2A receptor [2] = biological target: T1, 5-HT2A receptor (Homo sapiens, UniProt P28223); experiment: FLIPR Ca2+ flux functional agonist assay at 5-HT2A; assay type: cell-based; set-up: expressed in transfected cells; host or cells: HEK293
T1 sequence (P28223 whole entry): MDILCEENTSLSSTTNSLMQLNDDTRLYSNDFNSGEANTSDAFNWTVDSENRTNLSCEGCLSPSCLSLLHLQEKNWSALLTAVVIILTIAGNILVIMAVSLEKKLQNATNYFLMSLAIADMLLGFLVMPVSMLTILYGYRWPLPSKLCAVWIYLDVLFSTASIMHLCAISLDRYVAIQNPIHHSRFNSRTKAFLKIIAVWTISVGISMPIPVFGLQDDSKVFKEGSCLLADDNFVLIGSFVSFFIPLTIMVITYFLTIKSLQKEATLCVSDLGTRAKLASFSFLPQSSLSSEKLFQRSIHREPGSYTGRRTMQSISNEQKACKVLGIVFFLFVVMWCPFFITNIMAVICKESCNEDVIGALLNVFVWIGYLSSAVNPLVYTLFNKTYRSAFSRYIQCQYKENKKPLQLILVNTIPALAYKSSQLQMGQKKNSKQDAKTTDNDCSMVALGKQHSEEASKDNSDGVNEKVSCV
Experimental: Disclosed compounds were tested for agonist activity at several serotonin receptor subtypes (5-HT2A, […], and 5-HT2C) using Ca^2+ flux functional assays, with the results summarized in Table 9.
(§1) Test Compounds. Compounds were prepared as described above.
Functional Assays at 5-HT2A and 5-HT2B. Agonist activity at 5-HT2A and 5-HT2B receptors was determined using a FLIPR Ca^2+ flux assay at WuXi AppTec (Hong Kong) Limited according to their standard protocols. Briefly, stably transfected cells expressing the receptor of interest (HEK293 for both 5-HT2A and 5-HT2B) were grown and plated in a 384-well plate and incubated at 37° C. and 5% CO2 overnight. A solution of 250 mM probenecid in 1 mL FLIPR assay buffer was prepared fresh. This was combined with a fluorescent dye (Fluo-4 Direct™) to make a final assay concentration of 2.5 mM. Compounds were diluted 1:3.16 for 10 points and 750 nL was added to a 384 well compound plate using ECHO along with 30 μL assay buffer. The fluorescent dye was then added to the assay plate along with assay buffer to a final volume of 40 μL. The cell plate was incubated for 50 min at 37° C. and 5% CO2 and placed into the FLIPR Tetra along with the compound plate. 10 μL of references and compounds were then transferred from the compound plate into the cell plate and the fluorescent signal was read.

[3] = Metabolic stability in dog liver microsomes (DLM); assay type: in vitro ADME, Beagle dogs; settings: for stability in DLM (in words): 1 μM, 0.50 mg protein/mL, 1 mM NADPH, 37 °C, 60 min; for half-life at 1 µM / microsomal CLint at 1 µM: dog liver microsomes 0.50 mg/mL, NADPH 1 mM, test compound 1 μM, 37° C., pH 7.4, 60 min
Experimental: as §1
(§2) DLM Stability. Pooled DLM from adult male Beagle dogs (Xenotech D1000) were used. Microsomal incubations were carried out in multi-well plates. Liver microsomal incubation medium consisted of PBS (100 mM, pH 7.4), MgCl2 (1 mM), and NADPH (1 mM), with 0.50 mg of liver microsomal protein per mL. Control incubations were performed by replacing the NADPH-cofactor system with PBS. Test compounds (1 μM, final solvent concentration 1.0%) were incubated with microsomes at 37° C. with constant shaking. Six time points over 60 minutes were analyzed, with 60 μL aliquots of the reaction mixture being drawn at each time point. The reaction aliquots were stopped by adding 180 μL of cold (4° C.) acetonitrile containing 200 ng/mL tolbutamide and 200 ng/mL labetalol as internal standards (IS), followed by shaking for 10 minutes, and then protein sedimentation by centrifugation at 4,000 rpm for 20 minutes at 4° C. Supernatant samples (80 μL) were diluted with water (240 μL) and analyzed for parent compound remaining using a fit-for-purpose liquid chromatography-tandem mass spectrometry (LC-MS/MS) method.
(§3) Data Analysis. The elimination constant (kel), half-life (t1/2), and intrinsic clearance (CLint) were determined in a plot of […] versus time, using linear regression analysis.

[4] = Metabolic stability in human liver microsomes (HLM); assay type: in vitro ADME; settings: for stability in HLM (in words): 1 μM, 0.50 mg protein/mL, 1 mM NADPH, 37 °C, 60 min; for half-life at 1 µM / microsomal CLint at 1 µM: human liver microsomes 0.50 mg/mL, NADPH 1 mM, test compound 1 μM, 37° C., pH 7.4, 60 min
Experimental: as §1
as §2, with “HLM” for “DLM”, “and female donors (Corning 452117)” for “Beagle dogs (Xenotech D1000)”
as §3

5-HT2A receptor [5] = biological target: T1, 5-HT2A receptor; experiment: Radioligand binding at 5-HT2A ([3H]ketanserin); set-up: expressed in transfected cells
Experimental: The binding affinities of disclosed compounds at the ketanserin binding site of the 5-HT2A receptor, the LSD binding site of the 5-HT2B receptor, and the mesulergine binding site of the 5-HT2C receptor were determined in radioligand binding experiments.
Method. The affinity of the test compounds for 5-HT2A, 5-HT2B, and 5-HT2C receptors was determined in radioligand binding experiments with [^3H]ketanserin, [^3H]LSD, and [^3H]mesulergine, respectively, by WuXi AppTec (Hong Kong) Limited, using methods adapted from the literature and under conditions described in Table 7.

| SMILES | bioavailability ([1]; IV 2 mg/kg and PO 10 mg/kg, read-out: F (absolute oral bioavailability)) | C0 ([1]; IV 2 mg/kg) | AUC(0-t) ([1]; IV 2 mg/kg, read-out: AUC0-last (iv)) | half-life ([1]; IV 2 mg/kg, read-out: t1/2 (iv) (converted)) | Cmax ([1]; PO 10 mg/kg, fasted) | AUC(0-t) ([1]; PO 10 mg/kg, fasted, read-out: AUC0-last (po)) | half-life ([1]; PO 10 mg/kg, fasted, read-out: t1/2 (po) (converted)) | EC50 (5-HT2A receptor [2]) | agonist activity at 5-HT2A (in words) (5-HT2A receptor [2]; Ca2+ flux, potency or efficacy) | Emax (5-HT2A receptor [2]; HEK293, read-out: 5-HT2A % Act @ Max Dose) | stability in DLM (in words) [3] | half-life at 1 µM [3] | microsomal CLint at 1 µM [3] | stability in HLM (in words) [4] | half-life at 1 µM [4] | microsomal CLint at 1 µM [4] | Ki (5-HT2A receptor [5]) | binding at 5-HT2A receptors (in words) (5-HT2A receptor [5]; [3H]ketanserin) |
| --- | --- | --- | --- | --- | --- | --- | --- | --- | --- | --- | --- | --- | --- | --- | --- | --- | --- | --- |
| CCCCCCc1cc(OC)c(CC(N)CC)cc1OC (racemic) [Compound 1, 1-(4-hexyl-2,5-dimethoxyphenyl)butan-2-amine] | 8% | 389 ng/mL | 354 ng·h/mL | 2.16 h | 35.1 ng/mL | 138 ng·h/mL | 2.63 h | – | – | – | – | – | – | – | – | – | – | – |
| CCC(N)Cc1cc(OC)c(CCCCC(C)(F)F)cc1OC (stereo not drawn) [Compound 2b, 1-(4-(5,5-difluorohexyl)-2,5-dimethoxyphenyl)butan-2-amine] | – | – | – | – | – | – | – | 5.06 µM | substantially less potent than 1R and 1S in the 5-HT2A FLIPR assay | 71.3% | significantly higher stability compared to 1R and 1S | 1.19 h | 19.4 µL/min/mg | significantly higher stability compared to 1R and 1S | > 2.42 h | < 9.6 µL/min/mg | 0.00952 µM | potent ligands for 5-HT2A |
| [2H]C([2H])([2H])CCCCCc1cc(OC)c(CC(N)CC)cc1OC (stereo not drawn) [Compound 3a, 1-(4-(hexyl-6,6,6-d3)-2,5-dimethoxyphenyl)butan-2-amine] | – | – | – | – | – | – | – | – | – | – | modestly greater stability than 1R or 1S | 0.557 h | 41.5 µL/min/mg | intermediate stability | 0.517 h | 44.7 µL/min/mg | – | – |
